Source: ChEMBL document CHEMBL1144161, “ortho-dihydroxyisoflavone derivatives from aged Doenjang (Korean fermented soypaste) and its radical scavenging activity” (Bioorg Med Chem Lett, 2008)

Legend:
[1] = molecular target: T1, Xanthine dehydrogenase/oxidase (Homo sapiens, UniProt P47989); assay: Inhibition of xanthine oxidase assessed as decrease of uric acid generation
[2] = tested on: Radical scavenging activity; assay: Antioxidant activity assessed as DPPH radical scavenging activity after 30 mins; type: functional
[3] = molecular target: T1, Xanthine dehydrogenase/oxidase; assay: Inhibition of xanthine oxidase assessed as decrease of superoxide generation

T1 sequence (P47989 whole entry): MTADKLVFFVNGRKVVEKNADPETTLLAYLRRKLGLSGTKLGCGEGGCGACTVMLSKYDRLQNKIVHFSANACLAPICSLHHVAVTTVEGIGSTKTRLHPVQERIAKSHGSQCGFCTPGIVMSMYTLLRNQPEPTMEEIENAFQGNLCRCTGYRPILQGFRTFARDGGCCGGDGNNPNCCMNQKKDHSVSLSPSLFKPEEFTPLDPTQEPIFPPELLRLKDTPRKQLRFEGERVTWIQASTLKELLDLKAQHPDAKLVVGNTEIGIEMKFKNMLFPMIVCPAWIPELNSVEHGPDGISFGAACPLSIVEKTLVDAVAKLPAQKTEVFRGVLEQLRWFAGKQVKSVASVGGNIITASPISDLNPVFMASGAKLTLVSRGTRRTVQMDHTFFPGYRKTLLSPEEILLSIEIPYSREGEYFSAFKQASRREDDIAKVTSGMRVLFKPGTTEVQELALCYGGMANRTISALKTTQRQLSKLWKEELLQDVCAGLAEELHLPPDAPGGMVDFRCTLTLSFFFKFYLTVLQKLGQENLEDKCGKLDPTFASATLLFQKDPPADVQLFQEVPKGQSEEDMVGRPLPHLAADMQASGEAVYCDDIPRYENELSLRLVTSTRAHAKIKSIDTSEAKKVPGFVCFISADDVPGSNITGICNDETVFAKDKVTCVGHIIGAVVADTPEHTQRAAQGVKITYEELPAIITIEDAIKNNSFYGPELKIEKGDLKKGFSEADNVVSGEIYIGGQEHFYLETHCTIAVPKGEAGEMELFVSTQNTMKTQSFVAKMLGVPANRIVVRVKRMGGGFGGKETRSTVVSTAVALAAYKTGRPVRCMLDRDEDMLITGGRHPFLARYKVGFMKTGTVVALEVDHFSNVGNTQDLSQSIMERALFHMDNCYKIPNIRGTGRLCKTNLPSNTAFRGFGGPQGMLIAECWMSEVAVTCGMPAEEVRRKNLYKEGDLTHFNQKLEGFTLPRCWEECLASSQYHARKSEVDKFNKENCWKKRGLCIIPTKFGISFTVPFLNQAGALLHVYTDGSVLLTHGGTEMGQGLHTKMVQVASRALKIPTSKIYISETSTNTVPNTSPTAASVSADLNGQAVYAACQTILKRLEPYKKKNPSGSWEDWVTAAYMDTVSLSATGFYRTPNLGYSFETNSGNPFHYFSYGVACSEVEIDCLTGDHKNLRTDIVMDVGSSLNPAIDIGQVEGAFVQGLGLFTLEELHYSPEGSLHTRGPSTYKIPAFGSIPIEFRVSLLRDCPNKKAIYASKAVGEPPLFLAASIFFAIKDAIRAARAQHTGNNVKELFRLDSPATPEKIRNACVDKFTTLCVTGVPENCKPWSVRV

| Structure (SMILES) | IC50 [1] [mM] | IC50 [2] [µM] | IC50 [3] [µM] |
| --- | --- | --- | --- |
| O=c1c(-c2ccc(O)c(O)c2)coc2cc(O)ccc12 | > 1 | 28.7 | 16.8 |
| O=c1c(-c2ccc(O)cc2)coc2cc(O)c(O)cc12 | > 1 | 32.6 | > 1000 |
| O=c1c(-c2ccc(O)cc2)coc2c(O)c(O)ccc12 | > 1 | 21.5 | 6.6 |
| O=C1O[C@H]([C@@H](O)CO)C(O)=C1O [ASCORBIC ACID] | – | 52.3 | – |
| O=c1c(-c2ccc(O)cc2)coc2cc(O)ccc12 [DAIDZEIN] | > 1 | – | 430 |

Further lines, results first:

| IC50 [1] [mM] | IC50 [2] [µM] | IC50 [3] [µM] | Structure (SMILES) |
| --- | --- | --- | --- |
| > 1 | – | 232 | O=c1c(-c2ccc(O)cc2)coc2cc(O)cc(O)c12 [GENISTEIN] |
| > 1 | – | 683 | COc1cc2c(=O)c(-c3ccc(O)cc3)coc2cc1O [GLYCITEIN] |
| – | 48.9 | – | Cc1c(C)c2c(c(C)c1O)CCC(C)(C(=O)O)O2 (configuration not stated) [TROLOX] |
